Results reported in US9453000B2, “Polycyclic compound” (EISAI R&D MANAGEMENT CO., LTD., priority 2007, dated 2016).

Tested on: Aβ42 production in rat primary neuronal culture
Assay: Quantification of Aβ peptide in culture of neurons from rat fetus brain (Aβ ELISA)
Type: cell-based
Conditions: Primary cortical neuron, 72 h, rat primary cortical neurons (embryonic day 18 Wistar), three days after addition of the compound, Aβx-42 ELISA of medium, read-out: Aβ42 production reducing effect IC50
Experimental: Quantification of Aβ Peptide in Culture of Neurons from Rat Fetus Brain
(1) Rat Primary Neuronal Culture
Primary neuronal cultures were prepared from the cerebral cortex of embryonic day 18 Wistar rats (Charles River Japan, Yokohama, Japan). Specifically, the embryos were aseptically removed from pregnant rats under ether anesthesia. The brain was isolated from the embryo and immersed in an ice-cold L-15 medium (Invitrogen Corp. Cat #11415-064, Carlsbad, Calif., USA, or SIGMA L1518, for example). The cerebral cortex was collected from the isolated brain under a stereoscopic microscope. The cerebral cortex fragments collected were enzymatically treated in an enzyme solution containing 0.25% trypsin (Invitrogen Corp. Cat #15050-065, Carlsbad, Calif., USA) and 0.01% DNase (Sigma D5025, St. Louis, Mo., USA) at 37° C. for 30 minutes to disperse the cells. Here, the enzymatic reaction was stopped by adding inactivated horse serum to the solution. The enzymatically treated solution was centrifuged at 1,500 rpm for five minutes to remove the supernatant. 5 to 10 ml of a medium was added to the resulting cell mass. Neurobasal medium (Invitrogen Corp. Cat #21103-049, Carlsbad, Calif., USA) supplemented with 2% B27 supplement (Invitrogen Corp. Cat #17504-044, Carlsbad, Calif., USA), 25 μM 2-mercaptoethanol (2-ME, WAKO Cat #139-06861, Osaka, Japan), 0.5 mM L-glutamine (Invitrogen Corp. Cat #25030-081, Carlsbad, Calif., USA), and Antibiotics-Antimycotics (Invitrogen Corp. Cat #15240-062, Carlsbad, Calif., USA) was used as the medium (Neurobasal/B27/2-ME). However, the above Neurobasal medium not supplemented with 2-ME (Neurobasal/B27) was used for the assay. The cells were redispersed by mild pipetting of the cell mass to which the medium was added. The cell dispersion was filtered through a 40-μm nylon mesh (Cell Strainer, Cat #35-2340, Becton Dickinson Labware, Franklin Lakes, N.J., USA) to remove the remaining cell mass, and thus a neuronal cell suspension was obtained. The neuronal cell suspension was diluted with the medium and then plated in a volume of 100 μl/well at an initial cell density of 5×10^5 cells/cm^2 in a 96-well polystyrene culture plate pre-coated with poly-L or D-lysine (Falcon Cat #35-3075, Becton Dickinson Labware, Franklin Lakes, N.J., USA coated with poly-L-lysine using the method shown below, or BIOCOAT™ cell environments Poly-D-lysine cell ware 96-well plate, Cat #35-6461, Becton Dickinson Labware, Franklin Lakes, N.J., USA). Poly-L-lysine coating was carried out as follows. 100 μg/ml of a poly-L-lysine (SIGMA P2636, St. Louis, Mo., USA) solution was aseptically prepared with a 0.15 M borate buffer (pH 8.5). 100 μl/well of the solution was added to the 96-well polystyrene culture plate and incubated at room temperature for one or more hours or at 4° C. overnight or longer. The coated 96-well polystyrene culture plate was washed with sterile water four or more times, and then dried or rinsed with, for example, sterile PBS or medium, and used for cell plating. The plated cells were cultured in the culture plate at 37° C. in 5% CO2-95% air for one day. Then, the total amount of the medium was replaced with a fresh Neurobasal™/B27/2-ME medium, and then the cells were cultured for further three days.
The drug was added to the culture plate on Day 4 of culture as follows. The total amount of the medium was removed from the wells, and 180 μl/well of Neurobasal medium not containing 2-ME and containing 2% B-27 (Neurobasal/B27) was added thereto. A solution of the test compound in dimethyl sulfoxide (hereinafter abbreviated as DMSO) was diluted with Neurobasal/B27 at 10-fold of the final concentration. 20 μl/well of the dilution was added to and sufficiently mixed with the medium. The final DMSO concentration was 1% or less. Only DMSO was added to the control group.
The cells were cultured for three days after addition of the compound, and the total amount of the medium was collected. […]

| SMILES | IC50 [nM] |
| --- | --- |
| COc1nc(/C=C/c2nc3n(n2)CC[C@H]3c2ccc(F)c(F)c2)ccc1-n1cnc(C)c1 [Example 380, (S)-7-(3,4-difluorophenyl)-2-{(E)-2-[6-methoxy-5-(4-methyl-1H-imidazol-1-yl)pyridin-2-yl]vinyl}-6,7-dihydro-5H-pyrrolo[1,2-b][1,2,4]triazole] | 29 |
| COc1nc(/C=C/c2nc3n(n2)CC[C@H]3c2ccccc2C(F)(F)F)ccc1-n1cnc(C)c1 [Example 390, (S)-2-{(E)-2-[6-methoxy-5-(4-methyl-1H-imidazol-1-yl)pyridin-2-yl]vinyl}-7-(2-trifluoromethylphenyl)-6,7-dihydro-5H-pyrrolo[1,2-b][1,2,4]triazole] | 26 |
| COc1nc(/C=C/c2nc3n(n2)CC[C@H]3c2cc(F)ccc2C(F)(F)F)ccc1-n1cnc(C)c1 [Example 392, (S)-7-(5-fluoro-2-trifluoromethylphenyl)-2-{(E)-2-[6-methoxy-5-(4-methyl-1H-imidazol-1-yl)pyridin-2-yl]vinyl}-6,7-dihydro-5H-pyrrolo[1,2-b][1,2,4]triazole] | 22 |
